molecular target: human TPH1 (Homo sapiens (Human), UniProt P17752); assay: Biochemical in vitro assay using fluorescence readout (TPH1 inhibition); settings: human TPH1, fluorescence readout
Sequence (P17752 whole entry): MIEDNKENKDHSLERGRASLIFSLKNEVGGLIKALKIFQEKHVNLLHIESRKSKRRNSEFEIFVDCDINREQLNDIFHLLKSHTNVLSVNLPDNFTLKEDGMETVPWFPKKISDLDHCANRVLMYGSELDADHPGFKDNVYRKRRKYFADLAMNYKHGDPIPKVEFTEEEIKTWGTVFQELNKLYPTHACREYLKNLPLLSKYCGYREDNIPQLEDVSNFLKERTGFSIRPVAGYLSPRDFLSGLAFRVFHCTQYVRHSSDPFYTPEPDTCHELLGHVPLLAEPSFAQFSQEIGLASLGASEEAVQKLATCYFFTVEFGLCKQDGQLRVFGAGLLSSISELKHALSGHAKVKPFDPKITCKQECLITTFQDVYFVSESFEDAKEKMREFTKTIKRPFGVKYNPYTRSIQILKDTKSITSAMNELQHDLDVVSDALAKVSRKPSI

Structure (SMILES)	IC50 [nM]
Cc1nn2c3c(nc2s1)CCN(C(=O)COc1ccc(N2CCOCC2)nc1Cl)C3c1sc(C(=O)N(C)C)cc1F (stereo not drawn) [Example 1.24.1, 5-(6-(2-((2-chloro-6-morpholinopyridin-3-yl)oxy)acetyl)-2-methyl-5,6,7,8-tetrahydro-[1,3,4]thiadiazolo[2′,3′:2,3]imidazo[4,5-c]pyridin-5-yl)-4-fluoro-N,N-dimethylthiophene-2-carboxamide]	2
Cc1nn2c3c(nc2s1)CCN(C(=O)COc1ccc(C(F)(F)F)nc1Cl)C3c1sc(C(=O)N(C)C)cc1F (stereo not drawn) [Example 1.24.2, 5-(6-(2-((2-chloro-6-(trifluoromethyl)pyridin-3-yl)oxy)acetyl)-2-methyl-5,6,7,8-tetrahydro-[1,3,4]thiadiazolo [2′,3′:2,3]imidazo[4,5-c]pyridin-5-yl)-4-fluoro-N,N-dimethylthiophene-2-carboxamide]	22
Cc1nn2c3c(nc2s1)CCN(C(=O)COc1ccc(C(F)(F)F)cc1Cl)C3c1sc(C(=O)N(C)C)cc1F (stereo not drawn) [Example 1.24.3, 5-(6-(2-(2-chloro-4-(trifluoromethyl)phenoxy)acetyl)-2-methyl-5,6,7,8-tetrahydro-[1,3,4]thiadiazolo[2′,3′:2,3]imidazo[4,5-c]pyridin-5-yl)-4-fluoro-N,N-dimethylthiophene-2-carboxamide]	8
Cc1nn2c3c(nc2s1)CCN(C(=O)COc1ccc(C#N)nc1Cl)C3c1sc(C(=O)N(C)C)cc1F (stereo not drawn) [Example 1.24.4, 5-(6-(2-((2-chloro-6-cyanopyridin-3-yl)oxy)acetyl)-2-methyl-5,6,7,8-tetrahydro-[1,3,4]thiadiazolo[2′,3′:2,3]imidazo[4,5-c]pyridin-5-yl)-4-fluoro-N,N-dimethylthiophene-2-carboxamide]	46
Cc1nn2c3c(nc2s1)CCN(C(=O)COc1cccnc1Cl)C3c1sc(C(=O)N(C)C)cc1F (stereo not drawn) [Example 1.24.5, 5-(6-(2-((2-chloropyridin-3-yl)oxy)acetyl)-2-methyl-5,6,7,8-tetrahydro-[1,3,4]thiadiazolo[2′,3′:2,3]imidazo[4,5-c]pyridin-5-yl)-4-fluoro-N,N-dimethylthiophene-2-carboxamide]	64
Cc1nn2c3c(nc2s1)CCN(C(=O)COc1ccc(N2CC(F)(F)C2)nc1Cl)C3c1sc(C(=O)N(C)C)cc1F (stereo not drawn) [Example 1.24.6, 5-(6-(2-((2-chloro-6-(3,3-difluoroazetidin-1-yl)pyridin-3-yl)oxy)acetyl)-2-methyl-5,6,7,8-tetrahydro-[1,3,4]thiadiazolo [2′,3′:2,3]imidazo[4,5-c]pyridin-5-yl)-4-fluoro-N,N-dimethylthiophene-2-carboxamide]	5
Cc1nn2c3c(nc2s1)CCN(C(=O)COc1ccc(C(=O)N(C)C)nc1Cl)C3c1sc(C(=O)N(C)C)cc1F (stereo not drawn) [Example 1.24.7, 6-chloro-5-(2-(5-(5-(dimethylcarbamoyl)-3-fluorothiophen-2-yl)-2-methyl-7,8-dihydro-[1,3,4]thiadiazolo[2′,3′:2,3]imidazo[4,5-c]pyridin-6(5H)-yl)-2-oxoethoxy)-N,N-dimethylpicolinamide]	5
Cc1nn2c3c(nc2s1)CCN(C(=O)COc1ccc(C#N)cc1Cl)C3c1sc(C(=O)N(C)C)cc1F (stereo not drawn) [Example 1.24.8, 5-(6-(2-(2-chloro-4-cyanophenoxy)acetyl)-2-methyl-5,6,7,8-tetrahydro-[1,3,4]thiadiazolo[2′,3′:2,3]imidazo[4,5-c]pyridin-5-yl)-4-fluoro-N,N-dimethylthiophene-2-carboxamide]	14
Cc1nn2c3c(nc2s1)CCN(C(=O)COc1ccc(NS(C)(=O)=O)nc1Cl)C3c1sc(C(=O)N(C)C)cc1F (stereo not drawn) [Example 1.24.9, 5-(6-(2-((2-chloro-6-(methylsulfonamido)pyridin-3-yl)oxy)acetyl)-2-methyl-5,6,7,8-tetrahydro-[1,3,4]thiadiazolo [2′,3′:2,3]imidazo[4,5-c]pyridin-5-yl)-4-fluoro-N,N-dimethylthiophene-2-carboxamide]	6
CNC(=O)c1ccc(OCC(=O)N2CCc3nc4sc(C)nn4c3C2c2sc(C(=O)N(C)C)cc2F)c(Cl)n1 (stereo not drawn) [Example 1.24.10, 6-chloro-5-(2-(5-(5-(dimethylcarbamoyl)-3-fluoro-thiophen-2-yl)-2-methyl-7,8-dihydro-[1,3,4]thiadiazolo[2′,3′:2,3]imidazo[4,5-c]pyridin-6(5H)-yl)-2-oxoethoxy)-N-methylpicolinamide]	20
Cc1nn2c3c(nc2s1)CCN(C(=O)COc1ccc(C(=O)N(C)C)nc1Cl)[C@H]3c1sc(C(=O)N(C)C)cc1F [Example 1.24.11]	4
CNC(=O)c1cc(F)c(C2c3c(nc4sc(C)nn34)CCN2C(=O)COc2ccc(N3CCOCC3)nc2Cl)s1 (stereo not drawn) [Example 1.25.1, 5-(6-(2-((2-chloro-6-morpholinopyridin-3-yl)oxy)acetyl)-2-methyl-5,6,7,8-tetrahydro-[1,3,4]thiadiazolo[2′,3′:2,3]imidazo[4,5-c]pyridin-5-yl)-4-fluoro-N-methylthiophene-2-carboxamide]	5
CNC(=O)c1cc(F)c(C2c3c(nc4sc(C)nn34)CCN2C(=O)COc2ccc(C(F)(F)F)cc2Cl)s1 (stereo not drawn) [Example 1.25.2, 5-(6-(2-(2-chloro-4-(trifluoromethyl)phenoxy)acetyl)-2-methyl-5,6,7,8-tetrahydro-[1,3,4]thiadiazolo[2′,3′:2,3]imidazo[4,5-c]pyridin-5-yl)-4-fluoro-N-methylthiophene-2-carboxamide]	10
CNC(=O)c1cc(F)c(C2c3c(nc4sc(C)nn34)CCN2C(=O)COc2ccc(C(F)(F)F)nc2Cl)s1 (stereo not drawn) [Example 1.25.3, 5-(6-(2-((2-chloro-6-(trifluoromethyl)pyridin-3-yl)oxy)acetyl)-2-methyl-5,6,7,8-tetrahydro-[1,3,4]thiadiazolo [2′,3′:2,3]imidazo[4,5-c]pyridin-5-yl)-4-fluoro-N-methylthiophene-2-carboxamide]	35
CNC(=O)c1cc(F)c(C2c3c(nc4sc(C)nn34)CCN2C(=O)COc2ccc(C(=O)N(C)C)nc2Cl)s1 (stereo not drawn) [Example 1.25.4, 6-chloro-5-(2-(5-(3-fluoro-5-(methylcarbamoyl)thiophen-2-yl)-2-methyl-7,8-dihydro-[1,3,4]thiadiazolo[2′,3′:2,3]imidazo[4,5-c]pyridin-6(5H)-yl)-2-oxoethoxy)-N,N-dimethylpicolinamide]	6
CNC(=O)c1cc(F)c(C2c3c(nc4sc(C)nn34)CCN2C(=O)COc2ccc(N3CC(F)(F)C3)nc2Cl)s1 (stereo not drawn) [Example 1.25.5, 5-(6-(2-((2-chloro-6-(3,3-difluoroazetidin-1-yl)pyridin-3-yl)oxy)acetyl)-2-methyl-5,6,7,8-tetrahydro-[1,3,4]thiadiazolo [2′,3′:2,3]imidazo[4,5-c]pyridin-5-yl)-4-fluoro-N-methylthiophene-2-carboxamide]	7
CNC(=O)c1cc(F)c(C2c3c(nc4sc(C)nn34)CCN2C(=O)COc2ccc(C(N)=O)nc2Cl)s1 (stereo not drawn) [Example 1.25.6, 6-chloro-5-(2-(5-(3-fluoro-5-(methylcarbamoyl)thiophen-2-yl)-2-methyl-7,8-dihydro-[1,3,4]thiadiazolo[2′,3′:2,3]imidazo[4,5-c]pyridin-6(5H)-yl)-2-oxoethoxy)picolinamide]	8
CNC(=O)c1cc(F)c(C2c3c(nc4sc(C)nn34)CCN2C(=O)COc2ccc(NS(C)(=O)=O)nc2Cl)s1 (stereo not drawn) [Example 1.25.7, 5-(6-(2-((2-chloro-6-(methylsulfonamido)pyridin-3-yl)oxy)acetyl)-2-methyl-5,6,7,8-tetrahydro-[1,3,4]thiadiazolo [2′,3′:2,3]imidazo[4,5-c]pyridin-5-yl)-4-fluoro-N-methylthiophene-2-carboxamide]	7
CNC(=O)c1cc(F)c(C2c3c(nc4sc(C)nn34)CCN2C(=O)COc2ccc(C#N)cc2Cl)s1 (stereo not drawn) [Example 1.25.8, 5-(6-(2-(2-chloro-4-cyanophenoxy)acetyl)-2-methyl-5,6,7,8-tetrahydro-[1,3,4]thiadiazolo[2′,3′:2,3]imidazo[4,5-c]pyridin-5-yl)-4-fluoro-N-methylthiophene-2-carboxamide]	43
CNC(=O)c1cc(F)c(C2c3c(nc4sc(C)nn34)CCN2C(=O)COc2cc(F)cnc2Cl)s1 (stereo not drawn) [Example 1.25.9, 5-(6-(2-((2-chloro-5-fluoropyridin-3-yl)oxy)acetyl)-2-methyl-5,6,7,8-tetrahydro-[1,3,4]thiadiazolo[2′,3′:2,3]imidazo[4,5-c]pyridin-5-yl)-4-fluoro-N-methylthiophene-2-carboxamide]	47
COC(=O)c1ccc(C2c3c(nc4sc(C)nn34)CCN2C(=O)COc2ccc(N3CCOCC3)nc2Cl)o1 (stereo not drawn) [Example 1.26.1, Methyl 5-(6-(2-((2-chloro-6-morpholinopyridin-3-yl)oxy)acetyl)-2-methyl-5,6,7,8-tetrahydro-[1,3,4]thiadiazolo [2′,3′:2,3]imidazo[4,5-c]pyridin-5-yl)furan-2-carboxylate]	10
CCOC(=O)c1csc(C2c3c(nc4sc(C)nn34)CCN2C(=O)COc2ccc(N3CCOCC3)nc2Cl)n1 (stereo not drawn) [Example 1.27.1, ethyl 2-(6-(2-((2-chloro-6-morpholinopyridin-3-yl)oxy)acetyl)-2-methyl-5,6,7,8-tetrahydro-[1,3,4]thiadiazolo[2′,3′:2,3]imidazo[4,5-c]pyridin-5-yl)thiazole-4-carboxylate]	7
CCOC(=O)c1csc(C2c3c(nc4sc(C)nn34)CCN2C(=O)COc2ccc(C(F)(F)F)nc2Cl)n1 (stereo not drawn) [Example 1.27.2, Ethyl 2-(6-(2-((2-chloro-6-(trifluoromethyl)pyridin-3-yl)oxy)acetyl)-2-methyl-5,6,7,8-tetrahydro-[1,3,4]thiadiazolo [2′,3′:2,3]imidazo[4,5-c]pyridin-5-yl)thiazole-4-carboxylate]	500
CCOC(=O)c1csc(C2c3c(nc4sc(C)nn34)CCN2C(=O)COc2ccc(C(F)(F)F)cc2Cl)n1 (stereo not drawn) [Example 1.27.3, ethyl 2-(6-(2-(2-chloro-4-(trifluoromethyl)phenoxy)acetyl)-2-methyl-5,6,7,8-tetrahydro-[1,3,4]thiadiazolo[2′,3′:2,3]imidazo[4,5-c]pyridin-5-yl)thiazole-4-carboxylate]	245

From US9765092B2, “Tricyclic piperidine compounds” (ACTELION PHARMACEUTICALS LTD, priority 2013, dated 2017)
